What was measured:
[1] = molecular target: T1, Aβ1–42 (amyloid β peptide, 42 residues) (Homo sapiens, UniProt P05067); experiment: Thioflavin T fluorescence fibrillization assay; assay type: biochemical
T1 construct: gene APP; wild-type 42-residue peptide Abeta 1-42, cut from amyloid-beta precursor protein (APP770 residues 672-713); lyophilized, chloride salt, purchased from Calbiochem; non-fibrillated at start, aggregating during the assay

[2] = molecular target: T1, Aβ1–42 (amyloid β peptide, 42 residues); experiment: Thioflavin T fluorescence fibrillization assay; assay type: biochemical; remark: listed apart in the source

T1 sequence (P05067 672-713): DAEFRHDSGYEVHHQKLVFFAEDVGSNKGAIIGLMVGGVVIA

Row | IC50 [1] [µM] | inhibition at 100 µM [2] [%] | SMILES
1 | 1.28 |  | CC(C(=O)Nc1ccc(C(C)(C)C)cc1)N1CCCC1 (stereo not drawn) [compound 5]
2 | 34.4 |  | O=C(COc1ccccc1)C1CCCN1 (stereo not drawn) [compound 8]
3 |  | ~50 | COc1ccc(C2CNC(=O)C2)cc1OC1CCCC1 (stereo not drawn) [compound 14]
